Results: US10047105B2, “Gyrase inhibitors” (Merck Sharp & Dohme Corp., priority 2009, dated 2018)
Converted amounts (≈) assume the structure as drawn.

Assays:
[1] = tested on: S. aureus ATCC 13709; experiment: MIC, antibacterial potency, S. aureus; format: cell-based; details: S. aureus
[2] = tested on: S. pneumoniae ATCC 51916; experiment: MIC, S. pneumoniae; format: cell-based; details: S. pneumoniae

SMILES | MIC, SA [1] [µg/mL] | MIC Spn52 [2] [µg/mL]
CCc1[nH]c2nc(Nc3cnc4c(c3)nnn4C(C)C)nc(N3CC(O)C3)c2c1Cl.O=C(O)C(F)(F)F [700,525] | > 64 | > 64
CCc1[nH]c2nc(Nc3cnc4c(c3)nnn4C(C)C)nc(N3CC(NC(=O)O)C3)c2c1Cl.O=C(O)C(F)(F)F [700,526] | 8 | > 64
CCc1[nH]c2nc(Nc3cnc4c(c3)nnn4C(C)C)nc(N3CC(N)C3)c2c1Cl.O=C(O)C(F)(F)F.O=C(O)C(F)(F)F [700,527] | 16 | 8
CCc1[nH]c2nc(Nc3cnc4c(c3)nnn4C(C)C)nc(N3CC[C@@H](N(C)C)C3)c2c1Cl.O=C(O)C(F)(F)F.O=C(O)C(F)(F)F [700,528] | 8 | 8
CCc1[nH]c2nc(Nc3ccc4c(N)nc(C)nc4c3)nc(N3CC(N)C3)c2c1Cl.O=C(O)C(F)(F)F.O=C(O)C(F)(F)F [700,531] | 8 | 4
CCc1[nH]c2nc(Nc3cnc4c(c3)nnn4C(C)C)nc(N(C)CCO)c2c1Cl.O=C(O)C(F)(F)F [700,534] | 2 | > 32
CCc1[nH]c2nc(Nc3cnc4c(c3)nnn4C(C)C)nc(OC)c2c1Br.O=C(O)C(F)(F)F [700,535] | ≤ 0.5 | 4
CCc1nc2c(N3CC(N)C3)nc(Sc3cnc4c(N)nc(C)nc4c3)nc2[nH]1 [700,538] | > 16 | > 16
CCc1[nH]c2nc(Sc3cnc4nccnc4c3)nc(N3CC(NCc4cccnc4)C3)c2c1Cl [700,539] | ≤ 0.5 | 1 (≈ 1.98 µM)
CCc1[nH]c2nc(Sc3cnc4nccnc4c3)nc(N3CCC(N)C3)c2c1Cl (stereo not drawn) [700,540] | 1 (≈ 2.34 µM) | 2 (≈ 4.68 µM)
CCc1[nH]c2nc(Sc3cnc4nccnc4c3)nc(N3CCC(N)CC3)c2c1Cl [700,541] | 4 (≈ 9.07 µM) | 4 (≈ 9.07 µM)
CCc1[nH]c2nc(Sc3cnc4nccnc4c3)nc(-n3ccnc3)c2c1Cl [700,542] | 2 (≈ 4.89 µM) | 8 (≈ 19.6 µM)
CCOC(=O)Cc1nc(N2CCC(O)C2)c2c(Cl)c(CC)[nH]c2n1 (stereo not drawn) [700,544] | > 64 | > 64
CCc1[nH]c2nc(Sc3cc(=O)n(C)c(=O)[nH]3)nc(N3CC(N)C3)c2c1Br.O=C(O)C(F)(F)F [700,545] | 2 | 4
CCc1[nH]c2nc(Sc3cnc4nccnc4c3)nc(N(C)Cc3cccnc3)c2c1Cl.O=C(O)C(F)(F)F [700,546] | 4 | 16
CCc1[nH]c2nc(Sc3cnc4nccnc4c3)nc(N3CCC4(CCCN4)C3)c2c1Cl (stereo not drawn) [700,547] | 4 (≈ 8.57 µM) | 4 (≈ 8.57 µM)
CCc1[nH]c2nc(Sc3cnc4nccnc4c3)nc(N3CC4CNC4C3)c2c1Cl.O=C(O)C(F)(F)F (stereo not drawn) [700,548, 7-(4-(3,6-diazabicyclo[3.2.0]heptan-3-yl)-5-chloro-6-ethyl-7H-pyrrolo[2,3-d]pyrimidin-2-ylthio)pyrido[3,2-b]pyrazine] | ≤ 0.5 | 2
CCc1[nH]c2nc(Sc3cnc4nccnc4c3)nc(N3CC[C@H](NC)C3)c2c1Cl.O=C(O)C(F)(F)F [700,549] | 4 | 4
CCc1[nH]c2nc(Nc3cnc4c(c3)nnn4C(C)C)nc(OC)c2c1Cl.O=C(O)C(F)(F)F [700,550] | 1 | 8
CCc1[nH]c2nc(Oc3cncnc3)nc(Oc3cncnc3)c2c1Cl.O=C(O)C(F)(F)F [700,551] | 2 | 4
CCc1[nH]c2nc(Oc3cncnc3)nc(Oc3cncnc3)c2c1Br.O=C(O)C(F)(F)F [700,552] | ≤ 0.5 | 2
CCc1[nH]c2nc(Sc3cnc4nccnc4c3)nc(OS(=O)(=O)c3ccc(C)cc3)c2c1Cl [700,558] | 8 (≈ 15.6 µM) | > 64
CCc1[nH]c2nc(Sc3nc(C(=O)O)c(Cl)s3)nc(N3CCC(N)C3)c2c1Cl (stereo not drawn) [700,559] | > 64 | > 64
CCc1[nH]c2nc(Sc3cccnc3)nc(N3CC(N)C3)c2c1Cl [700,560] | 8 (≈ 22.2 µM) | 32 (≈ 88.7 µM)
CCc1[nH]c2nc(Sc3cnc(Oc4cccnc4)nc3)nc(N3CC(N)C3)c2c1Cl [700,561] | 16 (≈ 35.2 µM) | 32 (≈ 70.3 µM)
CCc1[nH]c2nc(Sc3ccc[n+]([O-])c3)nc(N3CC(N)C3)c2c1Cl [700,562] | 16 (≈ 42.5 µM) | 64 (≈ 170 µM)
CCc1[nH]c2nc(Sc3cnc4nccnc4c3)nc(N3CC4CCNC4C3)c2c1Cl.O=C(O)C(F)(F)F (stereo not drawn) [700,563] | 1 | 2

SMILES | MIC, SA [1] [µg/mL] | MIC Spn52 [2] [µg/mL]
CCc1[nH]c2nc(Sc3cnc4nccnc4c3)nc(N3CCC4CNCC43)c2c1Cl.O=C(O)C(F)(F)F (stereo not drawn) [700,564] | 8 | 16
CCc1[nH]c2nc(Sc3cnc4nccnc4c3)nc(N3CC4CNCC4C3)c2c1Cl.O=C(O)C(F)(F)F (stereo not drawn) [700,565] | 2 | 4
CCc1[nH]c2nc(Sc3cnc4nccnc4c3)nc(N3CC4CNCC43)c2c1Cl.O=C(O)C(F)(F)F (stereo not drawn) [700,566] | > 64 | 64
CCc1[nH]c2nc(Sc3cnc4nccnc4c3)nc(N3CCC(NC)C3)c2c1Cl.O=C(O)C(F)(F)F (stereo not drawn) [700,567] | 7 | 4
CCc1[nH]c2nc(Sc3cnc4nccnc4c3)nc(N3C[C@H]4CCCN[C@H]4C3)c2c1Cl.O=C(O)C(F)(F)F [700,568] | ≤ 0.5 | 2
CCc1[nH]c2nc(Sc3cnc4nccnc4c3)nc(N3CCCNCC3)c2c1Cl.O=C(O)C(F)(F)F [700,569] | 8 | 4
CCc1[nH]c2nc(Sc3cnc4nccnc4c3)nc(N(C)C[C@@H](O)c3cccc(O)c3)c2c1Cl.O=C(O)C(F)(F)F [700,570] | 1 | 8
CCc1[nH]c2nc(Sc3cnc4nccnc4c3)nc(N3CC4CN(C(=O)OC(C)(C)C)C4C3)c2c1Cl (stereo not drawn) [700,571] | 8 (≈ 14.8 µM) | 8 (≈ 14.8 µM)
CCOc1nc(Nc2cnc3nccnc3c2)nc2[nH]c(CC)c(Br)c12.O=C(O)C(F)(F)F [700,572] | 4 | > 8
CCc1[nH]c2nc(Nc3cnc4nccnc4c3)nc(N3CC(O)C3)c2c1Cl.O=C(O)C(F)(F)F [700,573] | > 64 | > 64
CCc1[nH]c2nc(Sc3cncnc3)nc(N3CC(N)C3)c2c1Cl [700,574] | 4 (≈ 11.1 µM) | 16 (≈ 44.2 µM)
CCc1[nH]c2nc(Sc3ccc4c(NCC(C)O)ncnc4c3)nc(N3CCC(N)C3)c2c1Cl (stereo not drawn) [700,575] | 8 (≈ 16 µM) | 16 (≈ 32.1 µM)
CCc1[nH]c2nc(Sc3ccc4c(NC)ncnc4c3)nc(N3CCC(N)C3)c2c1Cl (stereo not drawn) [700,576] | 8 (≈ 17.6 µM) | 16 (≈ 35.2 µM)
O=C(O)C(F)(F)F.OCCc1[nH]c2nc(Oc3cccnc3)nc(Oc3cncnc3)c2c1Cl [700,577] | > 64 | > 64
CCc1[nH]c2nc(Oc3cncc(OC)c3)nc(Oc3cncc(OC)c3)c2c1Cl.O=C(O)C(F)(F)F [700,578] | ≤ 0.5 | 1
C=CCc1nc(Cc2cccnc2)nc2[nH]c(CC)c(Cl)c12 [700,584] | 8 (≈ 25.6 µM) | 32 (≈ 102 µM)
CCc1[nH]c2nc(Cc3cccnc3)nc(N3CCC(CN)CC3)c2c1Cl [700,585] | > 64 | > 64
CCc1[nH]c2nc(Cc3cccnc3)nc(N3CCC(C(C)N4CCOCC4)CC3)c2c1Cl (stereo not drawn) [700,586] | > 64 | > 64
CCc1[nH]c2nc(Cc3cccnc3)nc(N3CCC(N4CCOCC4)C3)c2c1Cl (stereo not drawn) [700,587] | 64 (≈ 150 µM) | > 64
CCc1[nH]c2nc(Sc3cnc4nccnc4c3)nc(N3CCC[C@@H](N)C3)c2c1Cl [700,588] | 8 (≈ 18.1 µM) | 8 (≈ 18.1 µM)
CCc1[nH]c2nc(Sc3cnc(N4CCC4)c(C#N)c3)nc(N3CCC(N)C3)c2c1Cl (stereo not drawn) [700,589] | 2 (≈ 4.4 µM) | 8 (≈ 17.6 µM)
CCc1[nH]c2nc(Sc3cnc(N4CC(O)C4)c(C#N)c3)nc(N3CCC(N)C3)c2c1Cl (stereo not drawn) [700,590] | 4 (≈ 8.49 µM) | 16 (≈ 34 µM)
CCc1[nH]c2nc(Oc3ccc(OC)nc3)nc(Oc3ccc(OC)nc3)c2c1Br.O=C(O)C(F)(F)F [700,591] | 2 | > 64
CCc1[nH]c2nc(Oc3ccc(OC)nc3)nc(Oc3ccc(OC)nc3)c2c1Cl.O=C(O)C(F)(F)F [700,592] | > 64 | 4
CCc1[nH]c2nc(Sc3cnc4nccnc4c3)nc(N3CC[C@@H](C)[C@@H](N)C3)c2c1Cl [700,595] | 8 (≈ 17.6 µM) | 8 (≈ 17.6 µM)
CCc1[nH]c2nc(Sc3ccc(S(=O)(=O)NCCN4CCOCC4)cc3)nc(N3CC(N)C3)c2c1Cl [700,596] | 32 (≈ 58 µM) | 32 (≈ 58 µM)
CCc1[nH]c2nc(Sc3ccc4c(N5CC(N)C5)ncnc4c3)nc(N3CCC(N)C3)c2c1Cl (stereo not drawn) [700,597] | 16 (≈ 32.3 µM) | 16 (≈ 32.3 µM)
